Measured values from ChEMBL document CHEMBL3885861, “Open TG-GATES”.

Species: Rattus norvegicus
Test: Open TG-GATES - Regimen: Single
Format: toxicity, organism-based, Sprague-Dawley
Design: regimen Single, gender Male, age 6 weeks
Settings: in vivo, po, 0 mg/kg, route gavage, dose level Control; for APTT / Bas / Eos / Fbg / Hb / Ht / Lym / MCH / MCHC / MCV / Mono / PT / Plat / RBC / Ret / WBC: tissue Blood; for KIDNEY_L / KIDNEY_R / KIDNEY_TOTAL: tissue Kidney; for LIVER: tissue Liver

Structure (SMILES): C#C[C@]1(O)CC[C@H]2[C@@H]3CCc4cc(O)ccc4[C@H]3CC[C@@]21C [ETHINYL ESTRADIOL]
- TERMINAL_BW (3 h): 196.6 g
- APTT (3 h): 16.9 s
- Bas (3 h): 0%
- Eos (3 h): 0.8%
- Fbg (3 h): 256 mg/dL
- Hb (3 h): 13.2 g/dL
- Ht (3 h): 39.9%
- Lym (3 h): 79.4%
- MCH (3 h): 21.8 pg
- MCHC (3 h): 33.1%
- MCV (3 h): 66 fL
- Mono (3 h): 3.8%
- PT (3 h): 12.2 s
- Plat (3 h): 117 x10_4/uL
- RBC (3 h): 604.8 x10_4/ul
- Ret (3 h): 9.9%
- WBC (3 h): 82.1 x10_2/uL
- KIDNEY_L (3 h): 0.8 g
- KIDNEY_R (3 h): 0.8 g
- KIDNEY_TOTAL (3 h): 1.7 g
- LIVER (3 h): 8.6 g
- ALP (3 h, tissue Plasma): 1558.8 IU/L
- ALT (3 h, tissue Plasma): 44 IU/L
- AST (3 h, tissue Plasma): 77.6 IU/L
- BUN (3 h, tissue Plasma): 10.6 mg/dL
- CRE (3 h, tissue Plasma): 0.2 mg/dL
- Ca (3 h, tissue Plasma): 11.3 mg/dL
- Cl (3 h, tissue Plasma): 107 meq/L
- DBIL (3 h, tissue Plasma): 0.02 mg/dL
- IP (3 h, tissue Plasma): 8.6 mg/dL
- K (3 h, tissue Plasma): 4 meq/L
- LDH (3 h, tissue Plasma): 56 IU/L
- Na (3 h, tissue Plasma): 142.4 meq/L
- PL (3 h, tissue Plasma): 157.6 mg/dL
- RALB (3 h, tissue Plasma): 2.6 g/dL
- TBIL (3 h, tissue Plasma): 0.044 mg/dL
- TC (3 h, tissue Plasma): 86.2 mg/dL
- TP (3 h, tissue Plasma): 5.5 g/dL
- gamma-GTP (3 h, tissue Plasma): 1.2 IU/L
- TERMINAL_BW (6 h): 194 g
- APTT (6 h): 16.2 s
- Bas (6 h): 0%
- Eos (6 h): 1%
- Fbg (6 h): 265.8 mg/dL
- Hb (6 h): 13.2 g/dL
- Ht (6 h): 39.3%
- Lym (6 h): 75%
- MCHC (6 h): 33.6%
- MCV (6 h): 63.4 fL
- PT (6 h): 12.3 s
- Plat (6 h): 123.8 x10_4/uL
- RBC (6 h): 620.2 x10_4/ul
- Ret (6 h): 9.8%
- WBC (6 h): 90.8 x10_2/uL
- KIDNEY_L (6 h): 0.8 g
- KIDNEY_R (6 h): 0.8 g
- KIDNEY_TOTAL (6 h): 1.7 g
- LIVER (6 h): 7.6 g
- ALP (6 h, tissue Plasma): 1686.2 IU/L
- ALT (6 h, tissue Plasma): 42 IU/L
- AST (6 h, tissue Plasma): 79.2 IU/L
- BUN (6 h, tissue Plasma): 7.6 mg/dL
- CRE (6 h, tissue Plasma): 0.2 mg/dL
- Ca (6 h, tissue Plasma): 10.8 mg/dL
- Cl (6 h, tissue Plasma): 109.4 meq/L
- DBIL (6 h, tissue Plasma): 0.012 mg/dL
- IP (6 h, tissue Plasma): 10.2 mg/dL
- K (6 h, tissue Plasma): 4 meq/L
- LDH (6 h, tissue Plasma): 53.6 IU/L
- Na (6 h, tissue Plasma): 144.6 meq/L
- PL (6 h, tissue Plasma): 122.6 mg/dL
- RALB (6 h, tissue Plasma): 2.6 g/dL
- TBIL (6 h, tissue Plasma): 0.046 mg/dL
- TC (6 h, tissue Plasma): 75.6 mg/dL
- TP (6 h, tissue Plasma): 5.4 g/dL
- gamma-GTP (6 h, tissue Plasma): 1 IU/L
- TERMINAL_BW (9 h): 195.8 g
- Bas (9 h): 0%
- Eos (9 h): 1%
- Fbg (9 h): 265.2 mg/dL
- Hb (9 h): 12.8 g/dL
- Ht (9 h): 38%
- Lym (9 h): 72.2%
- MCH (9 h): 21.8 pg
- MCHC (9 h): 33.6%
- MCV (9 h): 64.8 fL
- PT (9 h): 12.4 s
- Plat (9 h): 119.3 x10_4/uL
- RBC (9 h): 588 x10_4/ul
- Ret (9 h): 9.5%
- WBC (9 h): 73.4 x10_2/uL
- KIDNEY_L (9 h): 0.9 g
- KIDNEY_R (9 h): 0.9 g
- KIDNEY_TOTAL (9 h): 1.7 g
- LIVER (9 h): 7 g
- ALP (9 h, tissue Plasma): 1662.8 IU/L
- ALT (9 h, tissue Plasma): 42 IU/L
- AST (9 h, tissue Plasma): 75 IU/L
- BUN (9 h, tissue Plasma): 9.2 mg/dL
- CRE (9 h, tissue Plasma): 0.2 mg/dL
- Ca (9 h, tissue Plasma): 10.5 mg/dL
- Cl (9 h, tissue Plasma): 107.8 meq/L
- DBIL (9 h, tissue Plasma): 0.01 mg/dL
- IP (9 h, tissue Plasma): 10.7 mg/dL
- K (9 h, tissue Plasma): 3.8 meq/L
- LDH (9 h, tissue Plasma): 42 IU/L
- Na (9 h, tissue Plasma): 144 meq/L
- PL (9 h, tissue Plasma): 125.4 mg/dL
- RALB (9 h, tissue Plasma): 2.5 g/dL
- TBIL (9 h, tissue Plasma): 0.04 mg/dL
- TC (9 h, tissue Plasma): 77 mg/dL
- TP (9 h, tissue Plasma): 5.2 g/dL
- gamma-GTP (9 h, tissue Plasma): 1.2 IU/L
- TERMINAL_BW (24 h): 203.2 g
- APTT (24 h): 16.4 s
- Bas (24 h): 0%
- Eos (24 h): 1%
- Fbg (24 h): 245.4 mg/dL
- Hb (24 h): 12.9 g/dL
- Ht (24 h): 38.3%
- Lym (24 h): 76.2%
- MCH (24 h): 21.6 pg
- MCHC (24 h): 33.6%
- MCV (24 h): 64.4 fL
- Mono (24 h): 3.6%
- PT (24 h): 12.5 s
- Plat (24 h): 112.7 x10_4/uL
- RBC (24 h): 594.4 x10_4/ul
- Ret (24 h): 8.5%
- WBC (24 h): 103.2 x10_2/uL
- KIDNEY_L (24 h): 0.9 g
- KIDNEY_R (24 h): 0.9 g
- KIDNEY_TOTAL (24 h): 1.7 g
- LIVER (24 h): 8.9 g
- ALP (24 h, tissue Plasma): 1908.8 IU/L
- ALT (24 h, tissue Plasma): 52.2 IU/L
- AST (24 h, tissue Plasma): 78.6 IU/L
- BUN (24 h, tissue Plasma): 13.8 mg/dL
- CRE (24 h, tissue Plasma): 0.2 mg/dL
- Cl (24 h, tissue Plasma): 104.8 meq/L
- DBIL (24 h, tissue Plasma): 0.01 mg/dL
- GLC (24 h, tissue Plasma): 194.2 mg/dL
- IP (24 h, tissue Plasma): 7.7 mg/dL
- LDH (24 h, tissue Plasma): 62.4 IU/L
- Na (24 h, tissue Plasma): 141 meq/L
- PL (24 h, tissue Plasma): 136.2 mg/dL
- RALB (24 h, tissue Plasma): 2.5 g/dL
- TBIL (24 h, tissue Plasma): 0.034 mg/dL
